Source: patent US20200078459A1, “NEAR INFRARED (NIR) PHOTODYNAMIC THERAPY (PDT) IN COMBINATION WITH CHEMOTHERAPY” (Health Research, Inc., priority 2016, published 2020)
Read-outs that look alike come from different tables or passages of the source.

How the values were obtained:
[1] = test system: non-small cell carcinoma (NSCLC) xenografts; settings: for antitumor activity of the alone drug: no PDT
Experimental: 3) Tumor transplantation: the xenografts used for antitumor activity were transplanted subcutaneously. The treatment was initiated 7-10 days post transplantation. 4) Tumor measurement: two axes (mm) of tumor (L, longest axis; W, shortest axis) were measured with the aid of a Vernier caliper. Tumor weight (mg) was estimated as a formula tumor weight ½ (L×W2). Tumor measurements were taken after the scabbing healed post PDT and at least three times a week for post therapy and twice a week therefore. 5) Tumor regression: complete tumor regression (CR) was defined as the inability to detect tumor by palpation at the initial site of tumor appearance for more than two months post therapy. […] Partial tumor regression (PR) was defined as ≥50% reduction in initial tumor size. Normally, 5 mice per treatment group were included in these experiment groups and repeated at least twice.
PDT of Subcutaneous Tumors—Tumor bearing mice are injected via the tail vein with HPPH or derivatives at doses that are non-toxic unless exposed to light. For tail vein injections, mice were gently restrained in approved holders and their tails were briefly (less than 1 minute) dipped in warm sterile water (˜40° C.). Photosensitizers are injected in a volume of less than 0.2 mL into the tail vein using a 27-gauge needle.
The photosensitizers, at 24 hours (or the optimal time determined by optical imaging) after administration of HPPH or derivatives, the animals were partially restrained allowing leg movement, in specially designed holders without anesthesia.
Tumors are exposed to visible light (1 cm diameter) at power densities of less than 100 mW/cm^2. The light sources are either a dye laser (with a tunable range of 600 to 800 nm), at the optimal excitation wavelength for the individual photosensitizer; or a pulsed laser with a range of 460 to 800 nm. The treatment will vary, depending on the light dose (J/cm^2) and fluence rate (mW/cm^2) required, but usually is for approximately 30 minutes.
After light exposure, the mice are monitored closely for at least 1 hour and then daily until the re-growing tumors reach no more than 2 cm in the greatest dimension or for a maximum of 60 days (post treatment) at which time they are euthanized. All animals will be euthanized within 90 days of tumor implantation.

[2] = Skin phototoxicity of the photosensitizers; assay type: in vivo; settings: in contrast to most of the clinically approved PS
[3] = test system: skin cancer (basal cell carcinoma) early lung cancer and esophageal cancers; experiment: Phase I human clinical trials of HPPH; assay type: in vivo
[4] = test system: FaDu head and neck cancer xenografts; experiment: PDT response and antitumor activity in SCID mice bearing FaDu head and neck cancer xenografts; assay type: in vivo
Experimental: First dose of irinotecan: 1 h post-PDT treatment.
Human head and neck cancer xenografts (FaDu and H&N 85-1)
The treatment was initiated 7-10 post transplantation.

[5] = patients advised to be away from sunlight at least 6-8 weeks after the light treatment; cited from earlier work
[6] = 5 mg/kg weekly×3 doses, in combination with HPPH or Photobac with PDT, 8/10 mice

Molecule: N.N.[Cl][Pt][Cl] [Cisplatin, cisplatin]
- CR (complete tumor regression) [1, 6]: 80%
- antitumor activity of the alone drug ([1]; 5 mg/kg weekly×3 doses): not effective

Molecule: COc1cccc2c1C(=O)c1c(O)c3c(c(O)c1C2=O)C[C@@](O)(C(=O)CO)C[C@@H]3O[C@H]1C[C@H](N)[C@H](O)[C@H](C)O1 [Doxorubicin, doxorubicin]
- CR (complete tumor regression) [1, 6]: 80%
- antitumor activity of the alone drug ([1]; 5 mg/kg weekly×3 doses): not effective
- toxicity ([1]; mouse, in vivo): no significant effects

Molecule: CCCCCCOC(C)c1c(C)c2cc3nc(c4c5[nH]c(cc6nc(cc1[nH]2)C(C)=C6CC)c(C)c5C(=O)C4)[C@@H](CCC(=O)O)[C@@H]3C (some centres unmarked) [HPPH, 3-(1′-hexyloxy)ethyl-3-devinylpyropheopphorbide-a]
- skin photo toxicity [2]: do not produce any skin photo toxicity
- CR (complete tumor regression) ([1]; PDT with HPPH, without chemotherapy): 20%
- effectiveness in treatment of cancer [3]: effective

Molecule: CCc1c2c(nc3ccc(OC(=O)N4CCC(N5CCCCC5)CC4)cc13)-c1cc3c(c(=O)n1C2)COC(=O)[C@]3(O)CC [Irinotecan, irinotecan]
- CR (complete tumor regression) ([4]; 100 mg/kg weekly×4 doses, in combination with HPPH and PDT, 11/15 mice): 73%
- toxicity ([4]; PDT ± chemotherapy, in the used doses): no significant effects
- antitumor activity of the alone drug ([4]; drug alone, 100 mg/kg weekly×4 doses, no PDT): not effective
- CR (complete tumor regression) ([4]; in combination with Photobac (PDT), 3/5 mice): 60%

Molecule: CCCCOC(C)c1c(C)c2cc3nc(c4c5[nH]c(cc6nc(cc1[nH]2)C(C)C6CC)c(C)c5C(=O)N(CCCC)C4=O)C(CCC(=O)OC)C3C (centres unmarked) [Photobac, 3-(1′-butyloxy)ethyl-3-deacetyl-bacteriopurpurin-18-N-butyl-imide methyl ester]
- skin photo toxicity [2]: do not produce any skin photo toxicity

Molecule: Photofrin
- skin phototoxicity in patients [5]: severe skin phototoxicity
